According to US11485736B2 (KSQ Therapeutics, Inc., priority 2018, dated 2022):
Read-outs that look alike come from different tables or passages of the source.

Legend:
[1] = Liver microsomal stability, rat liver microsomes; assay type: in vitro ADME; conditions: 1 μM compound, NADPH, read-out: t1/2 (min) in RLM
In short: (§1)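 Compound (1 μM final) was incubated with prewarmed human or rat liver microsomes (1 mg/mL in 100 mM phosphate master mix) plus NADPH; aliquots at 0.5–30 minutes were quenched in cold acetonitrile and quantified by LC-MS/MS. Half-life came from the ln(% remaining) versus time slope, converted to CLint (μL/min/mg prot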

[2] = Liver microsomal stability, human liver microsomes; assay type: in vitro ADME; conditions: 1 μM compound, NADPH, read-out: t1/2 (min) in HLM
In short: as §1

[3] = ADME solubility determination at pH 2.0 and pH 7.4; assay type: physicochemical; conditions: aqueous buffer, thermodynamic from solid, LC-MS/MS
In short: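 Dried residues of 10 mM DMSO stocks were shaken in PBS pH 7.4 or pH 2.0 for 24 hours at 25° C. and 1,100 rpm. After centrifugation, supernatants were quantified by LC-MS/MS against a standard of known concentration, applying a dilution factor.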

[4] = PBS pH 2.0, shaken at 25° C. for 24 hours, read-out: Solubility at pH 2.0
[5] = PBS pH 7.4, shaken at 25° C. for 24 hours, read-out: Solubility at pH 7.4

half-life at 1 μM [1] [min]	half-life at 1 μM [2] [min]	solubility at 24 h [3, 4] [µM]	solubility at 24 h [3, 5] [µM]	solubility at 24 h ([3]; phosphate buffered saline, PBS pH 2.0, shaken at 25° C. for 24 hours, read-out: Solubility at pH 2.0) [µM]	solubility at 24 h ([3]; phosphate buffered saline, PBS pH 7.4, shaken at 25° C. for 24 hours, read-out: Solubility at pH 7.4) [µM]	Compound
< 25	< 25	< 10	< 10			COc1ncnc(C2CC2)c1-c1ncc2cnn(Cc3ccc(-n4nc(C(F)(F)F)cc4N(C)C)cc3)c2n1 [Example 121]
> 25	< 25	> 10	> 10			CCc1nc2cnc(-c3c(OC)ncnc3C3CC3)nc2n1Cc1ccc(-n2nc(C(F)(F)F)cc2C)cc1 [Example 209, 2-(4-cyclopropyl-6-methoxypyrimidin-5-yl)-8-ethyl-9-(4-(5-methyl-3-(trifluoromethyl)-1H-pyrazol-1-yl)benzyl)-9H-purine]
> 25	> 25	> 10	< 10			COc1ncnc(C2CC2)c1-c1ncc2cnn([C@@H](C)c3ccc(-c4nc(C(F)(F)F)cn4CCF)cc3)c2n1 [Example 169]
> 25	> 25	< 10	< 10			COc1ncnc(C2CC2)c1-c1ncc2nc(C(C)C)n(Cc3ccc(-n4nc(C(F)(F)F)cc4C)cc3)c2n1 [Example 212]
> 25	> 25	< 10	< 10			COc1ncnc(C2CC2)c1-c1ncc2cnn(Cc3ccc(-c4nc(C(F)(F)F)c(Br)n4C)cc3)c2n1 [Example 163]
> 25	> 25	< 10	< 10			COc1ncnc(C2CC2)c1-c1ncc2cnn([C@@H]3CCc4cc(-c5nc(C(F)(F)F)cn5C(C)C)ccc43)c2n1 [Example 174]
< 25	< 25	> 10	< 10			COc1ncnc(C2CC2)c1-c1ncc2cnn(Cc3ccc(-c4nc(C(F)(F)F)c5n4CCNC5)cc3)c2n1 [Example 136, 6-(4-Cyclopropyl-6-methoxypyrimidin-5-yl)-1-(4-(1-(trifluoromethyl)-5,6,7,8-tetrahydroimidazo[1,5-a]pyrazin-3-yl)benzyl)-1H-pyrazolo[3,4-d]pyrimidine]
> 25	> 25	< 10	< 10			COc1ncnc(C2CC2)c1-c1ncc2nc(C3CCC3)n(Cc3ccc(-n4nc(C(F)(F)F)cc4C)cc3)c2n1 [Example 214]
< 25	> 25	< 10	< 10			CCn1cc(C(F)(F)F)nc1-c1ccc(Cn2nc(C)c3cnc(-c4c(OC)ncnc4C4CC4)nc32)cc1 [Example 187, 6-(4-cyclopropyl-6-methoxypyrimidin-5-yl)-1-(4-(1-ethyl-4-(trifluoromethyl)-1H-imidazol-2-yl)benzyl)-3-methyl-1H-pyrazolo[3,4-d]pyrimidine]
> 25	> 25	< 10	< 10			COc1ncnc(C2CC2)c1-c1ncc2nc(C3CC3)n(Cc3ccc(-n4nc(C(F)(F)F)cc4C)cc3)c2n1 [Example 213]
> 25	> 25	> 10	< 10			COc1nc(N)nc(C2CC2)c1-c1ncc2cnn(Cc3ccc(-n4nc(C(F)(F)F)cc4C)cc3)c2n1 [Example 112]
< 25	< 25	> 10	> 10			CCn1cc(C(F)(F)F)nc1-c1ccc(Cn2nc(N3CCC3)c3cnc(-c4c(OC)ncnc4C4CC4)nc32)cc1 [Example 186, 3-(azetidin-1-yl)-6-(4-cyclopropyl-6-methoxypyrimidin-5-yl)-1-(4-(1-ethyl-4-(trifluoromethyl)-1H-imidazol-2-yl)benzyl)-1H-pyrazolo[3,4-d]pyrimidine]
> 25	> 25	< 10	< 10			CCn1cc(C(F)(F)F)nc1-c1ccc(Cn2nc(OC)c3cnc(-c4c(OC)ncnc4C4CC4)nc32)cc1F [Example 175, 6-(4-cyclopropyl-6-methoxypyrimidin-5-yl)-1-(4-(1-ethyl-4-(trifluoromethyl)-1H-imidazol-2-yl)-3-fluorobenzyl)-3-methoxy-1H-pyrazolo[3,4-d]pyrimidine]

Further lines, the molecule ahead of its results:

Compound	half-life at 1 μM [1] [min]	half-life at 1 μM [2] [min]	solubility at 24 h [3, 4] [µM]	solubility at 24 h [3, 5] [µM]	solubility at 24 h ([3]; phosphate buffered saline, PBS pH 2.0, shaken at 25° C. for 24 hours, read-out: Solubility at pH 2.0) [µM]	solubility at 24 h ([3]; phosphate buffered saline, PBS pH 7.4, shaken at 25° C. for 24 hours, read-out: Solubility at pH 7.4) [µM]
COc1ncnc(C2CCC2)c1-c1ncc2cnn(Cc3ccc(-c4nc(C(F)(F)F)cn4C(C)C)cc3)c2n1 [Example 16]	< 25	< 25	> 10	< 10		
COc1ncnc(C2CC2)c1-c1ncc2cnn(Cc3ccc(-n4nc(C#N)cc4OC)cc3)c2n1 [Example 70]	< 25	> 25	< 10	< 10		
CCn1cc(C(F)(F)F)nc1-c1ccc([C@@H](C)n2ncc3cnc(-c4c(OC)ncnc4C4CCC4)nc32)cc1 (single isomer, unassigned) [Example 100]	< 25	< 25	> 10	< 10		
COc1ncnc(C2CC2)c1-c1ncc2cnn(Cc3ccc(-n4nc(C(F)(F)F)cc4-c4ccco4)cc3)c2n1 [Example 30, 6-(4-cyclopropyl-6-methoxypyrimidin-5-yl)-1-(4-(5-(furan-2-yl)-3-(trifluoromethyl)-1H-pyrazol-1-yl)benzyl)-1H-pyrazolo[3,4-d]pyrimidine]	< 25	< 25	< 10	< 10		
COc1ncnc(C2CC2)c1-c1ncc2cnn(Cc3ccc(-n4nc(C(F)(F)F)cc4OC)nc3)c2n1 [Example 79]	> 25	> 25	< 10	< 10		
COc1ncnc(C2CC2)c1-c1ncc2cnn(Cc3ccc(-n4nc(C(F)(F)F)cc4C(C)C)cc3)c2n1 [Example 29]	> 25	> 25	< 10	< 10		
CC(C)c1ccccc1-c1ncc2cnn(Cc3ccc(-c4nc(C(F)(F)F)cn4C)cc3)c2n1 [Example 1, 6-(2-isopropylphenyl)-1-(4-(1-methyl-4-(trifluoromethyl)-1H-imidazol-2-yl)benzyl)-1H-pyrazolo[3,4-d]pyrimidine]	< 25	< 25	< 10	< 10		
COc1ncnc(C2CC2)c1-c1ncc2cnn(Cc3ccc(-n4nc(C(F)(F)F)cc4OCCO)cc3)c2n1 [Example 78]	> 25	> 25	< 10	< 10		
CCn1cc(C(F)(F)F)nc1-c1ccc(Cn2ncc3cnc(-c4c(OC)ncnc4C4CC4)nc32)cc1F [Example 18]	> 25	> 25	< 10	< 10		
COc1ncnc(C(C)(C)C)c1-c1ncc2cnn(Cc3ccc(-c4nc(C(F)(F)F)cn4C)cc3)c2n1 [Example 109]	< 25	< 25	< 10	< 10		
COc1ncnc(C2CC2)c1-c1ncc2cnn([C@H](C)c3ccc(-c4nc(C(F)(F)F)cn4C(C)C)cc3)c2n1 [Example 98]	< 25	> 25	> 10	> 10		
CCn1cc(C(F)(F)F)nc1-c1ccc(Cn2ncc3cnc(-c4c(OC)ncnc4C4CC4)nc32)cc1 [Example 51]	> 25	> 25	> 10	< 10		
COc1cccc(C)c1-c1ncc2cnn(Cc3ccc(-c4nc(C(F)(F)F)cn4C)cc3)c2n1 [Example 5, 6-(2-methoxy-6-methylphenyl)-1-(4-(1-methyl-4-(trifluoromethyl)-1H-imidazol-2-yl)benzyl)-1H-pyrazolo[3,4-d]pyrimidine]	< 25	< 25	> 10	< 10		
CCn1cc(C(F)(F)F)nc1-c1ccc([C@H](C)n2ncc3cnc(-c4c(OC)ncnc4C4CC4)nc32)cc1F [Example 96]	> 25	> 25	< 10	< 10		
Cc1cc(C(F)(F)F)nn1-c1ccc(Cn2ncc3cnc(-c4cccnc4C#N)nc32)cc1 [Example 49]	> 25	> 25	< 10	< 10		
CC(C)c1c(F)cccc1-c1ncc2cnn(Cc3ccc(-c4nc(C(F)(F)F)cn4C)cc3)c2n1 [Example 10, 6-(3-fluoro-2-isopropylphenyl)-1-(4-(1-methyl-4-(trifluoromethyl)-1H-imidazol-2-yl)benzyl)-1H-pyrazolo[3,4-d]pyrimidine]	< 25	< 25	< 10	< 10		
Cc1ncnc(C(C)C)c1-c1ncc2cnn(Cc3ccc(-n4nc(C(F)(F)F)cc4C)cc3)c2n1 [Example 45]	< 25	< 25			< 10	< 10
